Source: PubChem BioAssay (NCI)
“And” between values parts separate entries of the source, which are not always exact repeats. Identical values can stand only once.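 96-well plates; 48 h exposure; 5 concentrations. Endpoints by linear interpolation between flanking doses. Not reached: highest tested concentration assigned. GI50: concentration for 50% inhibition of growth. TGI marks complete inhibition of growth.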

Assays:
Test in all cases: NCI tumour cell line growth inhibition, 48 h
[1] = system: EKVX NSCLC
[2] = system: KM12 colon
[3] = system: NCI-H460 lung
[4] = system: RPMI-8226 leukemia
[5] = system: RXF 393 renal
[6] = system: SK-MEL-28 melanoma
[7] = system: SNB-75 CNS
[8] = system: TK-10 renal
[9] = system: UO-31 renal
[10] = system: CCRF-CEM leukemia

In the case of Cn1cnc([N+](=O)[O-])c1Sc1nc2cc(Cl)c(F)cc2[nH]1, the TGI [1] is reported as 16.5 µM, the TGI [2] is reported as 36.6 µM and the TGI [3] is reported as 27.7 µM. The TGI [4] was 40.3 µM, the TGI [5] was 9.93 µM and the TGI [6] was 27.3 µM. The TGI [7] was 39.3 µM, the TGI [8] was 33 µM and the TGI [9] was 27.6 µM.

Work on Cc1c2cc[nH]c(C(F)(F)F)c2cc2c1nc1ccccc12 yielded a TGI [10] of over 125 µM, a TGI [1] of over 125 µM and a TGI [2] of over 125 µM. The TGI [3] was over 125 µM, the TGI [4] was over 78.9 µM and the TGI [5] was over 125 µM. For the same molecule, the TGI [6] was over 125 µM, the TGI [7] was 108 µM and the TGI [9] was over 125 µM.

In the case of O=C(Nc1cccc2ccccc12)Oc1ccccc1C1CCCCC1, the TGI [10] is reported as 53.7 µM, the TGI [1] is reported as 65.9 µM and the TGI [2] is reported as 41.7 µM. For the same molecule, the TGI [3] was 33 µM, the TGI [4] was 81.9 µM and the TGI [5] was 29.2 µM. For the same molecule, the TGI [6] was 38.1 µM, the TGI [7] was 29.8 µM and the TGI [8] was 72.3 µM. It also gave a TGI [9] of 34.6 µM.

For COC(=O)C(=O)C(C(=O)Nc1cccc(C)c1C)C1Sc2ccccc2NC1=O (stereo unspecified), the TGI [10] was over 25 µM, the TGI [1] was over 25 µM and the TGI [2] was over 25 µM. The TGI [3] was over 25 µM, the TGI [4] was over 25 µM and the TGI [5] was 23.8 µM. The TGI [6] was over 25 µM, the TGI [7] was over 25 µM and the TGI [8] was over 25 µM. The TGI [9] was over 25 µM.

With FC(F)(F)c1ccc(-c2nc(-c3nc4cc(Cl)c(Cl)cc4[nH]3)c3ccccn23)cc1 the GI50 [10] was over 100 µM, the TGI [10] was over 100 µM and the GI50 [4] was over 100 µM. The TGI [4] was over 100 µM, the GI50 [5] was 2.26 µM and the TGI [5] was 5.99 µM. It also gave a GI50 [7] of 1.45 µM, a TGI [7] of 4.3 µM and a GI50 [8] of 8.15 µM. It also gave a TGI [8] of over 100 µM.

Work on COc1cc2c(cc1OCCCN1CCN(CCCOc3cc4c(cc3OC)C(=O)N3CCC[C@H]3C=N4)CC1)C=CC(C)(C)O2 yielded a GI50 [10] of 0.288 µM, a GI50 [1] of 1.36 µM and a TGI [1] of 2.75 µM. For the same molecule, the GI50 [2] was 0.904 µM, the TGI [2] was 2.14 µM and the GI50 [3] was 1.1 µM. For the same molecule, the TGI [3] was 2.32 µM, the GI50 [4] was 0.232 µM and the TGI [4] was 0.699 µM. It also gave a GI50 [6] of 1.51 µM, a TGI [6] of 2.83 µM and a GI50 [7] of 1.26 µM. The TGI [7] was 2.74 µM, the GI50 [8] was 1.46 µM and the TGI [8] was 2.87 µM. For the same molecule, the GI50 [9] was 1.51 µM and the TGI [9] was 3.49 µM.

In the case of CCC1(O)CC(OC2CC(N(C)C)C(OC3CC4OC5CC(=O)C(C)OC5OC4C(C)O3)C(C)O2)c2c(cc3c(c2O)C(=O)c2c(O)ccc(O)c2C3=O)C1C(=O)OC (stereo unspecified), the GI50 [8] is reported as 0.0168 µM and 0.00314 µM.

For O=c1cnn(C/C=C\CO)c(=O)[nH]1, the TGI [10] was over 100 µM, the TGI [1] was over 100 µM and the TGI [2] was over 100 µM. For the same molecule, the TGI [3] was over 100 µM, the TGI [4] was over 100 µM and the TGI [5] was over 100 µM. It also gave a TGI [6] of over 100 µM, a TGI [7] of over 100 µM and a TGI [8] of over 100 µM. The TGI [9] was over 100 µM.
